According to patent US20230285339A1, “THERAPIES FOR TREATING AML AND USES OF RARA AGONISTS, HYPOMETHYLATING AGENTS, AND BCL-2 INHIBITORS” (Syros Pharmaceuticals, Inc., priority 2020, published 2023):

Test system: AML samples
Experiment: Beat AML ex vivo venetoclax sensitivity, proliferation assay on AML patient samples (AUC and IC50)
Type: cell-based, human
Procedure: Venetoclax sensitivity in BeatAML: The BeatAML dataset a/so included ex vivo sensitivity analysis for a panel of 121 inhibitors, including venetoclax, in a proliferation assay on 248 of the AML samples measured by area under the curve (AUC) and IC50. Only some of the patient samples were queried for each inhibitor. Of the samples with at least 40% blasts, 90 were tested for venetoclax ex vivo sensitivity. To define the best possible association of gene expression with venetoclax AUC, we performed a logistic regression model with lasso regularization to predict venetoclax AUC from the expression of all expressed genes using the expression matrix quantile normalized with the TCGA dataset. The R package glmnet was used as described above in the section “Development of monocytic expression signature in TCGA.”
To define samples sensitive to venetoclax, we first identified an IC50 that could separate sensitive samples from insensitive samples, as follows. We consulted two references (Bogenberger et al., Oncotarget 8:107206-107222, 2017) and Ramsey et al. Cancer Discovery 8:1566-1581, 2018) that defined sensitive AML cells in the range of 20-60 nM and resistant AML cells around 1 μM, and we choose 100 nM as a threshold that splits this range. We then mapped 100 nM IC50 values from the BeatAML venetoclax ex vivo assay to AUC, which is a more robust quantitative measure of sensitivity, by selecting the AUC below which all samples have an IC50<100 nM, which led to the AUC threshold of 130. At this threshold, we found 35 AML samples sensitive to venetoclax and 55 AML samples resistant to venetoclax.
In the methods, RARA gene expression in non-APL AML was evaluated in the TCGA and Beat AML RNA-seq datasets. AUC of cell viability curves were used to evaluate ex vivo sensitivity to compounds, including venetoclax, in the Beat AML dataset. A monocytic MES was developed using the expression of monocytic and primitive RNA markers in the TCGA dataset to analyze the monocytic phenotype. The MES used a logistic regression model with lasso regularization to distinguish FAB M4/5 (monocytic) from FAB M0/1/2 (primitive) using 10-fold cross-validation with 85% sensitivity and 80% specificity. The MES was then applied to the RNA-seq datasets from Beat AML and AML blasts from ND unfit AML patients in the ongoing tamibarotene-plus-azacitidine trial (NCT02807558), in which RARA-positive patients were determined by an RT-qPCR-based biomarker clinical trial assay (CTA). The MES, RARA expression, and venetoclax resistance-associated features were compared using Spearman's rho correlation; the association of the MES with the RARA biomarker and with IWG clinical responses in tamibarotene plus Aza treated patients was evaluated.

Structure (SMILES): CC1(C)CCC(CN2CCN(c3ccc(C(=O)NS(=O)(=O)c4ccc(NCC5CCOCC5)c([N+](=O)[O-])c4)c(Oc4cnc5[nH]ccc5c4)c3)CC2)=C(c2ccc(Cl)cc2)C1 [venetoclax]
- AML samples resistant (All 90 samples, AUC threshold 130): 55
- Percent sensitive (All patients (90 AML samples), AUC threshold 130): 39%
- N sensitive (All patients (90 AML samples, at least 40% blasts), sensitive = AUC below threshold of 130 (IC50<100 nM)): 35
- Percent sensitive (Monocytic AML patients (MES>0.5), N total 44): 11%
- N sensitive (Primitive AML patients (MES<0.5), N total 46): 30
- Percent sensitive (Primitive AML patients, N total 46): 65%
- Percent sensitive (RARA-high patients, N total 21): 0%
- N sensitive (RARA-low patients, N total 69): 35
- Percent sensitive (RARA-low patients, N total 69): 51%
